Measured values as given in patent US20120276196A1, “Pharmaceutical Compositions of a Neuroactive Steroid and Methods of Use Thereof” (Euro-Celtique S.A., priority 2005, published 2012).

Legend:
[1] = human, in vivo, po
Excerpt: (§1) The study is designed as an escalating single-dose, randomized, double-blind, placebo-controlled study in healthy adult male subjects.
(§2) The subjects will be monitored closely for safety and be tested using various pharmacodynamic measures during this phase. E.g. blood and urine samples will be collected for determination of the concentration of the active agent and its metabolites.
(§3) Pharmacokinetic samples will be analyzed after each cohort to examine the extent of drug exposure. Blood samples will be collected for determination of the active agent, its metabolites, and related substances at the following time-points: 0.25, 0.5, 1.0, 1.5, 2, 3, 4, 5, 6, 8, 10,12, 24, 30, 36, 48, 60, 72, 84 hr after dosing, and at End of Study. Up to 5 additional post-dosing blood sampling(s) may be performed and/or the timing of pharmacokinetic parameters draws may change if indicated after the analysis of blood samples from previous cohort(s). Samples will be collected after vital signs, pulse oximetry, and ECG are obtained.

[2] = escalating single-dose, randomized, double blind, placebo-controlled pharmacokinetic study, oral suspension, healthy male subjects; details: human, plasma
Excerpt: as §1, §2, §3

[3] = clinical; details: male, human, in vivo
Excerpt: as §1, §2, §3

For `COC[C@@]1(O)CC[C@]2(C)C3CC[C@@]4(C)C(CC[C@@H]4C(=O)Cn4ccnc4)C3CC[C@H]2C1` (stereo partly drawn) [3α-hydroxy-3β-methoxymethyl-21-(1′-imidazolyl)-5α-pregnan-20-one], the “Cmax levels between subjects” value [1] was “variable”, the “Cmax values versus dose” value [1] was “greater than dose-proportional” and the half-life ([2]; 1 mg) was 13.8 h. It also gave a half-life ([2]; 10 mg) of 13.1 h, a half-life ([2]; 30 mg) of 13.1 h and a half-life ([2]; 60 mg) of 12.5 h. It also gave a Tmax [3] of 1.5 to 5 h, a Cmax ([3]; 1 mg) of 1 to 1.8 ng/mL and a Cmax ([3]; 3 mg) of 4 to 8 ng/mL. The Cmax ([3]; 10 mg) was 16.9 to 46.3 ng/mL, the Cmax ([3]; 30 mg) was 95.6 to 154 ng/mL and the Cmax ([3]; 60 mg) was 218 to 479 ng/mL. It also gave a Tmax ([3]; po) of 1 to 3 h, a half-life ([3]; po) of roughly 12 h and a Cmax ([3]; po, 1 mg) of 1.3 ng/mL. It also gave a Tmax ([3]; po, 1 mg) of 3.1 h, an AUC(0-t) ([3]; po, 1 mg, AUC (0-24)) of 16.9 ng·h/mL and an AUC(0-t) ([3]; po, 1 mg, AUC (0-last)) of 22.4 ng·h/mL. The Cmax ([3]; po, 3 mg) was 5.7 ng/mL, the Tmax ([3]; po, 3 mg) was 2.8 h and the half-life ([3]; po, 3 mg) was 8.8 h. For the same compound, the AUC(0-t) ([3]; po, 3 mg, AUC (0-24)) was 54.6 ng·h/mL, the AUC(0-t) ([3]; po, 3 mg, AUC (0-last)) was 65.6 ng·h/mL and the Cmax ([3]; po, 10 mg) was 26.5 ng/mL. It also gave a Tmax ([3]; po, 10 mg) of 1.7 h, an AUC(0-t) ([3]; po, 10 mg, AUC (0-24)) of 213 ng·h/mL and an AUC(0-t) ([3]; po, 10 mg, AUC (0-last)) of 254 ng·h/mL. The Cmax ([3]; po, 30 mg) was 120 ng/mL, the Tmax ([3]; po, 30 mg) was 2.1 h and the AUC(0-t) ([3]; po, 30 mg, AUC (0-24)) was 952 ng·h/mL. The AUC(0-t) ([3]; po, 30 mg, AUC (0-last)) was 1120 ng·h/mL, the Cmax ([3]; po, 60 mg) was 330 ng/mL and the Tmax ([3]; po, 60 mg) was 1.8 h. The AUC(0-t) ([3]; po, 60 mg, AUC (0-24)) was 2330 ng·h/mL and the AUC(0-t) ([3]; po, 60 mg, AUC (0-last)) was 2610 ng·h/mL.
